Source: patent publication EP0565897B1, “Argatroban preparations for ophthalmic use” (priority 1992, dated 1993)

Columns and labels:
[1] = system: dog; assay: LD50 (acute toxicity), dog; type: in vivo; conditions: Female, i. v.
Source text: (§1) In the following Table 2, the toxicological data of argatroban is shown.

[2] = LD50 (acute toxicity), dog; type: in vivo; conditions: in vivo, iv, Male, i. v.
Source text: as §1

[3] = LD50 (acute toxicity), mouse; conditions: in vivo
Source text: as §1

[4] = LD50 (acute toxicity), rat; conditions: in vivo
Source text: as §1

[5] = system: fibrin formation in the rabbit anterior chamber; assay: Fibrin formation in the anterior chamber caused by laser irradiation (slit lamp microscope); type: in vivo, pigmented rabbits; conditions: 0.1 mg/kg/minute intravenously, 30 minutes after the irradiation
Method: In this example, a model of fibrin formation in the rabbit anterior chamber caused by laser irradiation was used as a measure for testing the action of argatroban. In this model, the seriousness of inflammation and amount of fibrin are determined proportional to the total energy of the laser irradiation. The amount of fibrin can be controled to the desired value by altering total energy of laser irradiation.
(§2) Matured pigmented rabbits (Dutch rabbits of 2 kg body weight) were irradiated with laser at the iris using an argon laser equipment (product of NIDEK). In one group of the rabbits on the eyes, 8 irradiation points at the same interval on a circle line were made under the conditions of coagulation size of 50 micrometer, output of 1.0 Watt and irradiation time of 0.1 second (condition A). In other group of the rabbits, 8 irradiation points similar to those on the eyes were made under the conditions of coagulation size of 200 micrometer, output of 1.0 Watt and irradiation time of 0.2 second (condition B).
From 30 minutes prior to and until 30 minutes after irradiations, 0.1 mg/kg/minute of argatroban was administered intravenously from ear vein. Control group received only laser irradiation. Positive control group received 1000 U/kg of heparin intravenously 30 minutes prior to laser irradiation. […]
The fibrin formation was recorded photographically using a slit lamp microscope.

[6] = system: fibrin formation in the anterior chamber; assay: Fibrin formation by administering self-plasma to the anterior chamber; type: in vivo, white rabbits; conditions: 150 microliter plasma and 50 microliter argatroban solution (10 mg/ml) injected to the anterior chamber; 24 hours after the administration
Method: Blood of matured white rabbits (2 kg in body weight) were taken and separated to give plasma. Two hundreds microliter of anterior chamber liquid was taken by conducting centesis into anterior chamber of the same rabbit. Then, 150 microliter of the plasma obained and 50 microliter of argatroban solution (10 mg/ml), 200 microliter in total, were injected to the anterior chamber from the same centesis portion. The control received 150 microliter of plasma and 50 microliter of physiological saline in the same manner at the anterior chamber. The fibrin formation in the anterior chamber 24 hours after the administration was observed and recorded.

[7] = system: flare increase in the anterior chamber; assay: Anterior chamber flare after argon laser irradiation (flare cell meter); type: in vivo, pigmented rabbits; conditions: condition B
Source text: as §2
From 30 minutes prior to and until 30 minutes after irradiations, 0.1 mg/kg/minute of argatroban was administered intravenously from ear vein. Control group received only laser irradiation. Positive control group received 1000 U/kg of heparin intravenously 30 minutes prior to laser irradiation.
For argatroban eye drop, right eyes of the rabbits received 5 mg/ml solution of argatroban, while left eyes were used as a control without application of argatroban.
Further, the laser irradiation of condition B was effected and then the anterior chamber flare values were estimated using the flare cell meter at 30 minutes and 60 minutes after the irradiation.
The flare cell meter measures turbidity in the anterior chamber as the photon count. […]

## CC1CNc2c(cccc2S(=O)(=O)N[C@@H](CCCNC(=N)N)C(=O)N2CC[C@@H](C)C[C@@H]2C(=O)O)C1.O (mixture of isomers) [argatroban, (2R,4R)-4-methyl-1-[N^2-((RS)-3-methyl-1,2,3,4-tetrahydro-8-quinolinesulfonyl)-L-arginyl]-2-piperidinecarboxylic acid hydrate]
[1]
  LD50: > 200 mg/kg
[2]
  LD50: > 200 mg/kg
[3]; ip, Female, i. p.
  LD50: 640 mg/kg
[3]; ip, Male, i. p.
  LD50: 475 mg/kg
[3]; iv, Female, i. v.
  LD50: > 81 mg/kg
[3]; iv, Male, i. v.
  LD50: > 81 mg/kg
[3]; po, Female, p. o.
  LD50: > 15000 mg/kg
[3]; po, Male, p. o.
  LD50: > 15000 mg/kg
[3]; sc, Female, subc.
  LD50: 3900 mg/kg
[3]; sc, Male, subc.
  LD50: 3750 mg/kg
[4]; ip, Female, i. p.
  LD50: 409 mg/kg
[4]; ip, Male, i. p.
  LD50: 320 mg/kg
[4]; iv, Female, i. v.
  LD50: > 81 mg/kg
[4]; iv, Male, i. v.
  LD50: > 81 mg/kg
[4]; po, Female, p. o.
  LD50: > 15000 mg/kg
[4]; po, Male, p. o.
  LD50: > 15000 mg/kg
[4]; sc, Female, subc.
  LD50: 620 mg/kg
[4]; sc, Male, subc.
  LD50: 700 mg/kg
[5]; condition A
  fibrin formation: no fibrin formation was also observed
[5]; condition B
  fibrin formation: no fibrin formation was also observed
[6]
  fibrin formation: No fibrin formation was observed
[7]; eye drop, solution of 5 mg/ml, 30 minutes after laser irradiation
  photon count (/msec): 287.7 ± 99.2 (n=4) /msec
[7]; eye drop, solution of 5 mg/ml, 60 minutes after laser irradiation
  photon count (/msec): 341.2 ± 86.5 (n=4) /msec
[7]; intravenous injection at 0.1 mg/kg/min, 30 minutes after laser irradiation
  photon count (/msec): 417.7 ± 159.3 (n=4) /msec
[7]; intravenous injection at 0.1 mg/kg/min, 60 minutes after laser irradiation
  photon count (/msec): 356.9 ± 168.3 (n=4) /msec
